Reference: ChEMBL document CHEMBL1150291, “Discovery of potent, orally bioavailable, selective 5-HT1A/B/D receptor antagonists” (J Med Chem, 2008)

What was measured:
[1] = biological target: T1, 5-hydroxytryptamine receptor 1B (Homo sapiens, UniProt P28222); test: Displacement of [3H]5HT from human recombinant 5HT1B receptor relative to control
[2] = biological target: T2, 5-hydroxytryptamine receptor 1A (Homo sapiens, UniProt P08908)
T2 sequence (P08908 whole entry): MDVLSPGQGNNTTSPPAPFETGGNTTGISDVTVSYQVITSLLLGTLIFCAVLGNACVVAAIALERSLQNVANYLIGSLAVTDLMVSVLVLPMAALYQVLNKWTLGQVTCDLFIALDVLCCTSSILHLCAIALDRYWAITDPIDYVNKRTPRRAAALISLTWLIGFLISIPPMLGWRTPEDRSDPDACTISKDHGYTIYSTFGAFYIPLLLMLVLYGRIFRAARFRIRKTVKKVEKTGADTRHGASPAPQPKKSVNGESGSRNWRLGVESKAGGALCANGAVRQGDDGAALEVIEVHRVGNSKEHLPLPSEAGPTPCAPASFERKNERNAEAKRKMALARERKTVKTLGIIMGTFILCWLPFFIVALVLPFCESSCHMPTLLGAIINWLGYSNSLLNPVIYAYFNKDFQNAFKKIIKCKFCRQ

[3] = Clearance in rat at 1 mg/kg, iv; assay type: ADME, organism-based; parameters: dose 1 mg/kg, route intravenous; settings: in vivo
[4] = Ratio of drug level in brain to blood in rat at 3 mg/kg, po; assay type: ADME, organism-based; parameters: dose 3 mg/kg, route oral; settings: read-out: BBR
[5] = biological target: Sodium-dependent serotonin transporter (Rattus norvegicus, UniProt P31652)
Description: Inhibition of [3H]5HT uptake at SERT in rat cortical synaptosomes

[6] = biological target: T3, 5-hydroxytryptamine receptor 1D (Homo sapiens, UniProt P28221); test: Displacement of [3H]5HT from human recombinant 5HT1D receptor relative to control
[7] = Volume of distribution at steady state in rat at 1 mg/kg, iv; assay type: ADME, organism-based; parameters: dose 1 mg/kg, route intravenous; settings: in vivo, read-out: Vdss
[8] = biological target: T3, 5-hydroxytryptamine receptor 1D
[9] = Cmax in rat brain at 3 mg/kg, po; assay type: ADME, organism-based; parameters: dose 3 mg/kg, route oral
[10] = biological target: T1, 5-hydroxytryptamine receptor 1B
[11] = Half life in rat at 1 mg/kg, iv; assay type: ADME, organism-based; parameters: dose 1 mg/kg, route intravenous; settings: in vivo
[12] = system: Rattus norvegicus; test: Reversal of SKF-99101-induced increase in seizure threshold in orally dosed rat by electroshock threshold test; assay type: functional
[13] = biological target: 5-hydroxytryptamine receptor 2A (Homo sapiens, UniProt P28223); test: Displacement of radioligand from human cloned 5HT2A receptor
[14] = biological target: 5-hydroxytryptamine receptor 5A (Homo sapiens, UniProt P47898)
Description: Displacement of radioligand from human cloned 5HT5A receptor

[15] = biological target: 5-hydroxytryptamine receptor 4 (Homo sapiens, UniProt Q13639); test: Displacement of radioligand from human cloned 5HT4 receptor
[16] = biological target: D(2) dopamine receptor (Homo sapiens, UniProt P14416)
Description: Displacement of radioligand from human cloned dopamine D2 receptor

[17] = biological target: 5-hydroxytryptamine receptor 1E (Homo sapiens, UniProt P28566); test: Displacement of radioligand from human cloned 5HT1E receptor
[18] = biological target: T4, 5-hydroxytryptamine receptor 2C (Homo sapiens, UniProt P28335); test: Displacement of radioligand from human cloned 5HT2C receptor
T4 sequence (P28335 whole entry): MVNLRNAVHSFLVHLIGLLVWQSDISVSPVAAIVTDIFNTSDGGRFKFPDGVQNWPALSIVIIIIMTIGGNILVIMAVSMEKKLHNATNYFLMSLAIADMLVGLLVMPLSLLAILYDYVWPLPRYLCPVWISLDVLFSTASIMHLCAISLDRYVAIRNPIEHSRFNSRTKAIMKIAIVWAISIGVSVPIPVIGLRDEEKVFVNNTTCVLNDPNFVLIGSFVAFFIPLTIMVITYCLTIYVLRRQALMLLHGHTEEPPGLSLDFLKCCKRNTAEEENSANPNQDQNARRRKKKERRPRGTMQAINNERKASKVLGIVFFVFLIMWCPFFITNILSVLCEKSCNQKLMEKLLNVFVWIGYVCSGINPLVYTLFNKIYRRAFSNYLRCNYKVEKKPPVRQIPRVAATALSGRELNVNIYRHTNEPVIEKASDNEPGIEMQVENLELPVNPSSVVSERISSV

[19] = biological target: 5-hydroxytryptamine receptor 7 (Homo sapiens, UniProt P34969); test: Displacement of radioligand from human cloned 5HT7 receptor
[20] = biological target: T5, Alpha-1B adrenergic receptor (Homo sapiens, UniProt P35368); test: Displacement of radioligand from human cloned adrenergic Alpha-1B receptor
T5 sequence (P35368 whole entry): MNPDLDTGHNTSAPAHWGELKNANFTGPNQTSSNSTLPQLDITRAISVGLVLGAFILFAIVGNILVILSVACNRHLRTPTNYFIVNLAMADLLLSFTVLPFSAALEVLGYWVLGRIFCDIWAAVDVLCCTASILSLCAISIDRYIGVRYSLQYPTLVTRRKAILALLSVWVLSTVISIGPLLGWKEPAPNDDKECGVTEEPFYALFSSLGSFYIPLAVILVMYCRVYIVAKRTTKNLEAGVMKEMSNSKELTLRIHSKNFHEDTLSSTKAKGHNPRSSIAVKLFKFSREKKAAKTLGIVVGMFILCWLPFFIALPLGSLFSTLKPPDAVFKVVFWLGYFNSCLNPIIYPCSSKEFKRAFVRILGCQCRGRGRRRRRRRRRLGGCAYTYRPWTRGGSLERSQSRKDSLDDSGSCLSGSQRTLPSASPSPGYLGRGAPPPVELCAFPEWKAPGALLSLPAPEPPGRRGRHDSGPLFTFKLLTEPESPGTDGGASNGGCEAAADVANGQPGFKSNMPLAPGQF

[21] = biological target: Sodium-dependent serotonin transporter (Homo sapiens, UniProt P31645); test: Displacement of radioligand from human cloned SERT
[22] = biological target: T6, 5-hydroxytryptamine receptor 1F (Homo sapiens, UniProt P30939); test: Displacement of radioligand from human cloned 5HT1F receptor
T6 sequence (P30939 whole entry): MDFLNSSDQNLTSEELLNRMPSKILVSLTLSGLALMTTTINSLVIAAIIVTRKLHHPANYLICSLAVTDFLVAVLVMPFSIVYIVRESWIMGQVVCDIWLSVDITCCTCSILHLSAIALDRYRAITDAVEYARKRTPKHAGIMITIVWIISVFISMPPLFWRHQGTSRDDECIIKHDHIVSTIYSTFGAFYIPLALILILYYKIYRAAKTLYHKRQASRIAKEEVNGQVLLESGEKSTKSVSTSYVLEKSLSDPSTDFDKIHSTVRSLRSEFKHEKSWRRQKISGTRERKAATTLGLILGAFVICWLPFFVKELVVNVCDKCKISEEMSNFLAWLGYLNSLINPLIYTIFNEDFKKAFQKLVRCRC

[23] = biological target: 5-hydroxytryptamine receptor 6 (Homo sapiens, UniProt P50406); test: Displacement of radioligand from human cloned 5HT6 receptor
[24] = biological target: 5-hydroxytryptamine receptor 2B (Homo sapiens, UniProt P41595); test: Displacement of radioligand from human cloned 5HT2B receptor
[25] = biological target: Beta-2 adrenergic receptor (Homo sapiens, UniProt P07550); test: Displacement of radioligand from human cloned adrenergic beta2 receptor
[26] = biological target: T2, 5-hydroxytryptamine receptor 1A; remark: listed apart in the source

T3 sequence (P28221 whole entry): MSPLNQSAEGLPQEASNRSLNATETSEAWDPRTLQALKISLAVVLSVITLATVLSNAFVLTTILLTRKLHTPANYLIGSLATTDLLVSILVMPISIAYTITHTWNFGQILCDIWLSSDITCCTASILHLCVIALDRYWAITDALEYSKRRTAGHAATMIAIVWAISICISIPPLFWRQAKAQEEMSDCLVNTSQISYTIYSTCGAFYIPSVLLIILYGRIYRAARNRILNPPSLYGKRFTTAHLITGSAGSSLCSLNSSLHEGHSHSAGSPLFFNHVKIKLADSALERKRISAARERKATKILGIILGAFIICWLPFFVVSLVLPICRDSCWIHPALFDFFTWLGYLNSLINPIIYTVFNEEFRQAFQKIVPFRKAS
Chain of Sodium-dependent serotonin transporter (Rattus norvegicus, UniProt P31652) (P31652 whole entry): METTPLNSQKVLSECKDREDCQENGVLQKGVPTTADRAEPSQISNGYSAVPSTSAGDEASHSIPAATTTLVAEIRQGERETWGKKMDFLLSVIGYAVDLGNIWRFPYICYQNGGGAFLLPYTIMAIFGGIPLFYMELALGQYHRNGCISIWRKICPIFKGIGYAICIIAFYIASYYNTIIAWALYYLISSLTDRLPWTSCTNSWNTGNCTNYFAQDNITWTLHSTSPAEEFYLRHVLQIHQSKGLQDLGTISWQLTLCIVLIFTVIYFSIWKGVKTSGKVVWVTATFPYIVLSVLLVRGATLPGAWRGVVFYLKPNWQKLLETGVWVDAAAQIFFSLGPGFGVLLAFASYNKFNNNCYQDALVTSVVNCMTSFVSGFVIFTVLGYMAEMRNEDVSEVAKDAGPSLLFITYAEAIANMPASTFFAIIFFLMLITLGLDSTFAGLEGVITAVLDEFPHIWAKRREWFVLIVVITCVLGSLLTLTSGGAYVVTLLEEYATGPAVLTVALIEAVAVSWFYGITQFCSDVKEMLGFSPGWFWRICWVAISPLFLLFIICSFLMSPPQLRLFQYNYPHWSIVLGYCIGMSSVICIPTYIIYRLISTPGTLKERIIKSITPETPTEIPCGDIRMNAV
T1 sequence (P28222 whole entry): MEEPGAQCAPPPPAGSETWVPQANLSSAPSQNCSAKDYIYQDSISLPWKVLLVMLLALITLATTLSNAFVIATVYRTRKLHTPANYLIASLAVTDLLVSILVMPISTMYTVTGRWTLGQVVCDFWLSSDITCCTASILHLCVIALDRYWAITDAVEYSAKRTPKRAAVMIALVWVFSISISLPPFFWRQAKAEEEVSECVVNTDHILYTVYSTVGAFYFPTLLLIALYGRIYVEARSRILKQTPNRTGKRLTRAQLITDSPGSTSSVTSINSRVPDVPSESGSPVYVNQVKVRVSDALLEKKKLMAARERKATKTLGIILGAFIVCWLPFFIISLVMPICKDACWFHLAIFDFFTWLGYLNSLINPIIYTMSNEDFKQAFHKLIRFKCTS
Chain of 5-hydroxytryptamine receptor 2B (P41595 whole entry): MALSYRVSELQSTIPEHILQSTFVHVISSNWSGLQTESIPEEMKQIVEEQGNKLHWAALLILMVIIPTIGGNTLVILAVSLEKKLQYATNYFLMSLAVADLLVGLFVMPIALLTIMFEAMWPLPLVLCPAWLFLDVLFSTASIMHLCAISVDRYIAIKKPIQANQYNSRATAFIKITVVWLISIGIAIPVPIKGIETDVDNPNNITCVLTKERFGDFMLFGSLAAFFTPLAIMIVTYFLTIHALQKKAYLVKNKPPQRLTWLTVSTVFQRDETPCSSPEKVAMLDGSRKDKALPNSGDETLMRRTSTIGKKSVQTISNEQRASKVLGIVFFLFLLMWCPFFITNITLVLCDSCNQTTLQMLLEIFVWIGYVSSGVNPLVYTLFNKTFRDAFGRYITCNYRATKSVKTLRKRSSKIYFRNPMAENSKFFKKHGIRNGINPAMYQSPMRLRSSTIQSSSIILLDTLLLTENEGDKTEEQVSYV
Chain of 5-hydroxytryptamine receptor 4 (Q13639 whole entry): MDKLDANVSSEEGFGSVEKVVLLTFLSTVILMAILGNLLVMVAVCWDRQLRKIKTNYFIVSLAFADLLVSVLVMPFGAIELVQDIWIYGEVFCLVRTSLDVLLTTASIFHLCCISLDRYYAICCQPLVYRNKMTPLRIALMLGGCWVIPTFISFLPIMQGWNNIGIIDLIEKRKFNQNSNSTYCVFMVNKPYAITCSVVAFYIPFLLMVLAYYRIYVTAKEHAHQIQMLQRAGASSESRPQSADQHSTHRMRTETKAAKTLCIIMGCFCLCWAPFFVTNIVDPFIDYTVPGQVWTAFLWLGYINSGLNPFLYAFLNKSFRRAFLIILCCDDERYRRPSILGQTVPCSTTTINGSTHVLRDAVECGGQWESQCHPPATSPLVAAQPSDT
Chain of 5-hydroxytryptamine receptor 7 (P34969 whole entry): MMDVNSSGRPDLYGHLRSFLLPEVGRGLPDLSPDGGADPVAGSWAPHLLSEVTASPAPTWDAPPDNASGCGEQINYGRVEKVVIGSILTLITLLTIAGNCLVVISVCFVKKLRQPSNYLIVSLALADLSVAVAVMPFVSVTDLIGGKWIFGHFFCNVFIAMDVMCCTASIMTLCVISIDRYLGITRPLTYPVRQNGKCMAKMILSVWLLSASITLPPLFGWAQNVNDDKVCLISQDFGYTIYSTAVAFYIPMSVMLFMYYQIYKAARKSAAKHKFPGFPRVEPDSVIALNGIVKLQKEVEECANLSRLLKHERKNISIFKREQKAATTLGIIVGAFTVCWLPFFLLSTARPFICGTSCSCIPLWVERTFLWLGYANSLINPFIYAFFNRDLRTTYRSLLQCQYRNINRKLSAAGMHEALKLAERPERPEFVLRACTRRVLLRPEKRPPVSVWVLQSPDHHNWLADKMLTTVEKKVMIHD
Chain of D(2) dopamine receptor (P14416 whole entry): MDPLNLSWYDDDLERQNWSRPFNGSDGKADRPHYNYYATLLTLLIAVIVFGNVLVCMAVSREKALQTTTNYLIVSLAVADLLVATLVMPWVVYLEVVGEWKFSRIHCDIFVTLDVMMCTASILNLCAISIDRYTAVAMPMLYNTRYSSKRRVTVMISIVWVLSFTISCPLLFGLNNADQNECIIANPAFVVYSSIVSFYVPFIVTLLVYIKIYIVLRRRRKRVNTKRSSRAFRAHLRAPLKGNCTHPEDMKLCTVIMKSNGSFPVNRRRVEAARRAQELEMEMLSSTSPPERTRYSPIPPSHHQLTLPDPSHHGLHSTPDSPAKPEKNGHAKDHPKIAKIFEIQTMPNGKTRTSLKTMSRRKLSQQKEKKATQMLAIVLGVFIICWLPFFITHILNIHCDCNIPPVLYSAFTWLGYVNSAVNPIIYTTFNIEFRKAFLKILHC
Chain of 5-hydroxytryptamine receptor 5A (P47898 whole entry): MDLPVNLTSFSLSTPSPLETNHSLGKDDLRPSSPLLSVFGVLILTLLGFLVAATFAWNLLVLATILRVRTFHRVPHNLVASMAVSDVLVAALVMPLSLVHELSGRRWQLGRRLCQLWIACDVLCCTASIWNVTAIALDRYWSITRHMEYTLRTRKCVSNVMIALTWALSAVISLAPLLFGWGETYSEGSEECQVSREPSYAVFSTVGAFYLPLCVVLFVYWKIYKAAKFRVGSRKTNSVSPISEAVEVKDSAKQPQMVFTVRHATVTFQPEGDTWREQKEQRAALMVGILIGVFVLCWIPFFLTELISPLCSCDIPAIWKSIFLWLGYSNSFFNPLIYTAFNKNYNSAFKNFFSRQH
Chain of Beta-2 adrenergic receptor (P07550 whole entry): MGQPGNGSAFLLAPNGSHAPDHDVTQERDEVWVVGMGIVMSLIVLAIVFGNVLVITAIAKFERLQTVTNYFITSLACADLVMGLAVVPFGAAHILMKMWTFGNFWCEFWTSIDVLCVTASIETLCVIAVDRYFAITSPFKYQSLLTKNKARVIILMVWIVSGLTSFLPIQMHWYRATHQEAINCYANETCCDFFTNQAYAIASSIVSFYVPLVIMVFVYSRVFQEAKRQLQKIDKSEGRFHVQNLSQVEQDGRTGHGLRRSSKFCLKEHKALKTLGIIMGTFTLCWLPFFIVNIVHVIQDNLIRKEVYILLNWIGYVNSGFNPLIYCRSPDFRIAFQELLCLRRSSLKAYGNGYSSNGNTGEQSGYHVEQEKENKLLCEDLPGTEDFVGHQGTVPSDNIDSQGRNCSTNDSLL
Chain of 5-hydroxytryptamine receptor 6 (P50406 whole entry): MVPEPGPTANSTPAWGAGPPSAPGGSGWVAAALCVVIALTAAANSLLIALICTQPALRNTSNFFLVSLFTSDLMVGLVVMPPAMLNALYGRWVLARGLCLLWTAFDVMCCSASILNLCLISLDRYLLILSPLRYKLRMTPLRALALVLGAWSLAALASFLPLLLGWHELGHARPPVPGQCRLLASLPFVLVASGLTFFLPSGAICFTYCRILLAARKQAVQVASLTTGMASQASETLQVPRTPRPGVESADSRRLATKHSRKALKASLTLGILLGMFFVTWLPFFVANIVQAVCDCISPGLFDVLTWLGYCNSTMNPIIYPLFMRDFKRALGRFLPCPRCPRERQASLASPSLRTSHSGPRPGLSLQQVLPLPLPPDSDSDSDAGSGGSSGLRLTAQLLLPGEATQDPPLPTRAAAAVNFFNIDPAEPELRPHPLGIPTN
Chain of 5-hydroxytryptamine receptor 1E (P28566 whole entry): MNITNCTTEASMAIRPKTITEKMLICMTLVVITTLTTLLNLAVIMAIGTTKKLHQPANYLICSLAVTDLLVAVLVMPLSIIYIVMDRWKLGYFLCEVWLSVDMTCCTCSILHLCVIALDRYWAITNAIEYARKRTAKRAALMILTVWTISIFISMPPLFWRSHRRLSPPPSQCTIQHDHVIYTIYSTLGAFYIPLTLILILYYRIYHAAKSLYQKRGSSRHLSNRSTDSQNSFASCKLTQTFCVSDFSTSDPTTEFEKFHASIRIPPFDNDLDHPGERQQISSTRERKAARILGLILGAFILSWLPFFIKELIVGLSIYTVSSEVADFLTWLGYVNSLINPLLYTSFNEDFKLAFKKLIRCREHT

| Intrinsic activity [1] | Ki [2] | clearance [3] | Ki [5] | Intrinsic activity [6] | Vd [7] | Ki [8] | Cmax [9] | Ki [10] | half-life [11] | Compound | further results |
| --- | --- | --- | --- | --- | --- | --- | --- | --- | --- | --- | --- |
| 0.3 | 25.1 nM | 47 mL/min/kg | 501 nM | 0.5 | 1.2 L/kg | 0.501 nM | 221 ng/g | 20 nM | 36 min | CC(=O)Nc1cccc(CC2CCN(CCOc3cccc4nc(C)ccc34)CC2)c1 | Kp [4]: 1.1 |
| 0 | 12.6 nM | – | 1000 nM | 0.5 | – | 1.58 nM | – | 12.6 nM | – | Cc1ccc2c(OCCN3CCC(Cc4cccc(N(C)S(C)(=O)=O)c4)CC3)cccc2n1 | – |
| 0.3 | 6.31 nM | 45 mL/min/kg | 501 nM | 0.4 | 1.8 L/kg | 1.26 nM | 175 ng/g | 50.1 nM | 54 min | Cc1ccc2c(OCCN3CCC(Cc4cccc(NC(=O)C(C)C)c4)CC3)cccc2n1 | Kp [4]: 2.3 |
| – | – | – | – | – | – | – | – | – | – | Cc1nc(-c2ccc(-c3ccc(C(=O)N4CCc5cc6c(cc54)C4(CCN(C)CC4)CO6)cc3)c(C)c2)no1 [SB-224289] | ED50 ([12]; po): 1 mg/kg |
| 0.3 | 25.1 nM | – | 794 nM | 0.3 | – | 0.631 nM | – | 15.8 nM | – | CCC(=O)Nc1cccc(CC2CCN(CCOc3cccc4nc(C)ccc34)CC2)c1 | – |
| 0.5 | 7.94 nM | 39 mL/min/kg | 794 nM | 0.4 | 0.9 L/kg | 1.58 nM | 287 ng/g | 12.6 nM | 54 min | Cc1ccc2c(OCCN3CCC(Cc4cccc(N5CCCS5(=O)=O)c4)CC3)cccc2n1 | Ki [13]: > 6310 nM; Ki [14]: 1580 nM; Ki [15]: 7940 nM; Ki [16]: 501 nM; Ki [17]: > 10000 nM; Ki [18]: > 3980 nM; Ki [19]: 15.8 nM; Ki [20]: 158 nM; Kp [4]: 0.9; Ki [21]: 398 nM; Ki [22]: 1000 nM; Ki [23]: 1580 nM; Ki [24]: > 1000 nM; Ki [25]: 1580 nM |
| 0.3 | 2.51 nM | – | 398 nM | 0.4 | – | 0.398 nM | – | 1.26 nM | – | Cc1ccc2c(OCCN3CCC(Cc4cccc(NS(=O)(=O)C(C)C)c4)CC3)cccc2n1 | – |
| – | 251 nM | – | 1000 nM | – | – | 0.316 nM | – | 50.1 nM | – | CC(=O)N(C)c1cccc(CN2CCN(CCOc3cccc4nc(C)ccc34)CC2)c1 | – |
| 0.3 | 25.1 nM | 37 mL/min/kg | 79.4 nM | 0.6 | 2.2 L/kg | 1.26 nM | 190 ng/g | 39.8 nM | 72 min | CC(=O)N(C)c1cccc(CC2CCN(CCOc3cccc4nc(C)ccc34)CC2)c1 | – |
| 0.4 | 6.31 nM | 35 mL/min/kg | 200 nM | 0.5 | 1.5 L/kg | 2 nM | 410 ng/g | 20 nM | 78 min | Cc1ccc2c(OCCN3CCC(Cc4cccc(N5CCCC5=O)c4)CC3)cccc2n1 | Kp [4]: 1.2 |
| – | – | – | 1580 nM | – | – | 200 nM | – | 1260 nM | – | CC(=O)Nc1ccc(CN2CCN(CCOc3cccc4nc(C)ccc34)CC2)cc1 | Ki [26]: 158 nM |
| 0.2 | 31.6 nM | – | 251 nM | 0.3 | – | 0.251 nM | – | 25.1 nM | – | CCNC(=O)Nc1cccc(CC2CCN(CCOc3cccc4nc(C)ccc34)CC2)c1 | – |
| – | 1260 nM | – | 10000 nM | – | – | 5.01 nM | – | 1580 nM | – | CC(=O)Nc1ccccc1CN1CCN(CCOc2cccc3nc(C)ccc23)CC1 | – |
| – | 200 nM | – | 794 nM | – | – | 1 nM | – | 251 nM | – | Cc1ccc2c(OCCN3CCN(Cc4ccccc4)CC3)cccc2n1 | Ki [26]: 25.1 nM |
| 0.3 | 5.01 nM | 34 mL/min/kg | 794 nM | 0.6 | 1.9 L/kg | 1.58 nM | 234 ng/g | 100 nM | 66 min | CCN(C(C)=O)c1cccc(CC2CCN(CCOc3cccc4nc(C)ccc34)CC2)c1 | – |
| 0.2 | 15.8 nM | – | 398 nM | 0.4 | – | 1 nM | – | 6.31 nM | – | Cc1ccc2c(OCCN3CCC(Cc4cccc(NC(=O)CN(C)C)c4)CC3)cccc2n1 | – |
| – | – | – | 631 nM | – | – | 2.51 nM | – | 158 nM | – | COc1cccc(CN2CCN(CCOc3cccc4nc(C)ccc34)CC2)c1 | Ki [26]: 12.6 nM |
| – | 200 nM | – | 1260 nM | – | – | 0.501 nM | – | 20 nM | – | CC(=O)Nc1cccc(CN2CCN(CCOc3cccc4nc(C)ccc34)CC2)c1 | Ki [26]: 2 nM |
| – | 126 nM | – | 631 nM | – | – | 6.31 nM | – | 39.8 nM | – | COc1ccc(CC2CCN(CCOc3cccc4nc(C)ccc34)CC2)cc1NS(C)(=O)=O | – |
| – | 50.1 nM | – | 398 nM | – | – | 12.6 nM | – | 501 nM | – | COc1ccc(CN2CCN(CCOc3cccc4nc(C)ccc34)CC2)cc1 | Ki [26]: 5.01 nM |

| Compound | Intrinsic activity [1] | Ki [2] | clearance [3] | Ki [5] | Intrinsic activity [6] | Vd [7] | Ki [8] | Cmax [9] | Ki [10] | half-life [11] | further results |
| --- | --- | --- | --- | --- | --- | --- | --- | --- | --- | --- | --- |
| Cc1ccc2c(OCCN3CCC(Cc4cccc(NS(C)(=O)=O)c4)CC3)cccc2n1 | 0.3 | 2.51 nM | 38 mL/min/kg | 1000 nM | – | 1.6 L/kg | 0.501 nM | 346 ng/g | 2 nM | 36 min | Ki [13]: 2510 nM; Ki [14]: 1260 nM; Ki [15]: > 10000 nM; Ki [16]: 63.1 nM; Ki [17]: 2510 nM; Ki [18]: > 1000 nM; Ki [19]: 20 nM; Activity [12]: Dose-dependent effect; Ki [20]: 200 nM; Kp [4]: 0.2; Ki [21]: 1580 nM; Ki [22]: 501 nM; Ki [23]: > 10000 nM; Ki [24]: 2000 nM; Ki [25]: 501 nM |
